Numbering of substitutions follows the chain as printed. Read-outs that look alike come from different tables or passages of the source.
Key:
[1] = biological target: T1, KDM4A DTD (human KDM4A double tudor domain, 895–1011aa) (Homo sapiens, UniProt O75164); assay: fluorescence polarization (FP) binding, KDM4A-DTD wild-type
T1 construct: DNA encoding DTDs (KDM4A 895–1011aa, KDM4B 917–1031aa and KDM4C 877–991aa); (His)6-HaloTag (pFN29) or (His)6 (pET28b); made in house; host or cells: Escherichia coli BL21 (DE3)
T1 sequence (O75164 895-1011): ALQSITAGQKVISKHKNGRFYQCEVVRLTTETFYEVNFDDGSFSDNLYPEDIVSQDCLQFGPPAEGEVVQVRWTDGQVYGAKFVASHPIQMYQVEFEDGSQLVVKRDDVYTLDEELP
Excerpt: (§1) KDM4 protein sequences used in this study correspond to Uniprot ID: O75164 (human KDM4A, isoform 1), O94953 (human KDM4B, isoform1) and Q9H3R0 (human KDM4C, isoform1). Plasmid encoding KDM4A DTD was kindly provided by R-M Xu (Chinese Academy of Sciences). Complementary DNA encoding human KDM4B-DTD was synthesized (Integrated DNA Technologies). Plasmid containing cDNA of full-length KDM4C (clone ID: HsCD00341594) was obtained from Harvard Plasmid Repository. DNA encoding DTDs (KDM4A 895–1011aa, KDM4B 917–1031aa and KDM4C 877–991aa) were cloned into pFN29 (Promega) with N-terminal (His)6-HaloTag or pET28b with N-terminal (His)6 Tag using In-Fusion HD cloning kit (Clontech). Plasmids encoding Xenopus laevis core histones were a generous gift of K. Luger (University of Colorado-Boulder). Site-directed mutagenesis was performed with Q5 Site-Directed Mutagenesis Kit (New England Biolabs).
(§2) Peptide sequences are given in Supplementary Table 1. […] A no-protein control with only peptide probe was included. Polarization at each concentration was measured as triplicates in 384-well polystyrene black microplates (Thermo Fisher Scientific 262260) by Biotek Synergy H4 multimode plate reader (light source: xenon flash, offset from top: 7 mm, sensitivity: 60%, excitation: 485/20 nm, emission: 528/20 nm, both parallel and perpendicular, normal read speed). Fraction bound (Fb) at each concentration was calculated based on the corresponding polarization values (P): Fbc=(Pc−Pmin)/(Pmax−Pmin), where Pmin is the polarization value of no-protein control and Pmax is the polarization value of the saturation value for that peptide. Dissociation constants (Kd) were derived by KaleidaGraph, Synergy Software (version 4.1.3) using the following equation: Fb=[protein]/([protein]+Kd).

[2] = biological target: T2, KDM4B N960A (Homo sapiens, UniProt O94953, N960A); assay: FP binding, KDM4B-DTD N960A; details: pH 7.4, Fig. 4g (± s.d., three replicates) and text
T2 construct: DNA encoding DTDs (KDM4A 895–1011aa, KDM4B 917–1031aa and KDM4C 877–991aa); (His)6-HaloTag (pFN29) or (His)6 (pET28b); made in house; host or cells: Escherichia coli BL21 (DE3)
T2 sequence (O94953 917-1031 N960A): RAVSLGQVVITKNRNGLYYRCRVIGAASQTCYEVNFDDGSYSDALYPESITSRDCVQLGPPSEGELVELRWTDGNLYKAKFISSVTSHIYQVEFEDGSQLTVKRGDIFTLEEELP
Excerpt: as §1, with “Plasmids encoding Xenopus laevis core histones were a generous gift of K. Luger (University of Colorado-Boulder). Site-directed mutagenesis was performed with Q5 Site-Directed Mutagenesis Kit (New England Biolabs).” left out
(§3) Peptide sequences are given in Supplementary Table 1. […] Polarization at each concentration was measured as triplicates in 384-well polystyrene black microplates (Thermo Fisher Scientific 262260) by Biotek Synergy H4 multimode plate reader (light source: xenon flash, offset from top: 7 mm, sensitivity: 60%, excitation: 485/20 nm, emission: 528/20 nm, both parallel and perpendicular, normal read speed). Fraction bound (Fb) at each concentration was calculated based on the corresponding polarization values (P): Fbc=(Pc−Pmin)/(Pmax−Pmin), where Pmin is the polarization value of no-protein control and Pmax is the polarization value of the saturation value for that peptide. […]

[3] = biological target: T3, KDM4B DTD (human KDM4B double tudor domain, 917–1031aa) (Homo sapiens, UniProt O94953); assay: fluorescence polarization (FP) binding, KDM4B-DTD wild-type
T3 construct: DNA encoding DTDs (KDM4A 895–1011aa, KDM4B 917–1031aa and KDM4C 877–991aa); (His)6-HaloTag (pFN29) or (His)6 (pET28b); made in house; host or cells: Escherichia coli BL21 (DE3)
T3 sequence (O94953 917-1031): T2 sequence (O94953 917-1031 N960A) with A44N
Excerpt: as §1, §2

[4] = biological target: T4, KDM4B S965D (Homo sapiens, UniProt O94953, S965D); assay: FP binding, KDM4B-DTD S965D; details: pH 7.4, Fig. 4i (± s.d., three replicates) and text
T4 construct: DNA encoding DTDs (KDM4A 895–1011aa, KDM4B 917–1031aa and KDM4C 877–991aa); (His)6-HaloTag (pFN29) or (His)6 (pET28b); made in house; host or cells: Escherichia coli BL21 (DE3)
T4 sequence (O94953 917-1031 S965D): T2 sequence (O94953 917-1031 N960A) with A44N, S49D
Excerpt: as §1, with “Plasmids encoding Xenopus laevis core histones were a generous gift of K. Luger (University of Colorado-Boulder). Site-directed mutagenesis was performed with Q5 Site-Directed Mutagenesis Kit (New England Biolabs).” left out
as §3

[5] = biological target: T5, KDM4B-DTD Y993A (Homo sapiens, UniProt O94953, Y993A); assay: FP binding, KDM4B-DTD Y993A; details: aromatic cage mutant, Supplementary Fig. 4d, value printed in peer review file
T5 construct: DNA encoding DTDs (KDM4A 895–1011aa, KDM4B 917–1031aa and KDM4C 877–991aa); (His)6-HaloTag (pFN29) or (His)6 (pET28b); made in house; host or cells: Escherichia coli BL21 (DE3)
T5 sequence (O94953 917-1031 Y993A): T2 sequence (O94953 917-1031 N960A) with A44N, Y77A
Excerpt: as §1, with “Plasmids encoding Xenopus laevis core histones were a generous gift of K. Luger (University of Colorado-Boulder). Site-directed mutagenesis was performed with Q5 Site-Directed Mutagenesis Kit (New England Biolabs).” left out
as §3

[6] = biological target: T6, KDM4C DTD (human KDM4C double tudor domain, 877–991aa) (Homo sapiens, UniProt Q9H3R0); assay: fluorescence polarization (FP) binding, KDM4C-DTD wild-type; details: Fig. 1c, 3 nM fluorescein-labelled peptide, pH 7.4, ± s.d. from three experimental replicates, read-out: binding constant (FP), KDM4C-DTD
T6 construct: DNA encoding DTDs (KDM4A 895–1011aa, KDM4B 917–1031aa and KDM4C 877–991aa); (His)6-HaloTag (pFN29) or (His)6 (pET28b); made in house; host or cells: Escherichia coli BL21 (DE3)
T6 sequence (Q9H3R0 877-991): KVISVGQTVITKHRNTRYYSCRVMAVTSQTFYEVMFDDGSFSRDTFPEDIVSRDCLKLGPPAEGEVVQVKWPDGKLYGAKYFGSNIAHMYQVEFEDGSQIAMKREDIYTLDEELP
Excerpt: as §1, with “Plasmids encoding Xenopus laevis core histones were a generous gift of K. Luger (University of Colorado-Boulder). Site-directed mutagenesis was performed with Q5 Site-Directed Mutagenesis Kit (New England Biolabs).” left out
as §3

[7] = biological target: T7, KDM4A-DTD triple mutant N931D/D939R/D945R (DRR) (Homo sapiens, UniProt O75164, D939R/D945R/N931D); assay: FP binding, KDM4A-DTD DRR mutant
T7 construct: DNA encoding DTDs (KDM4A 895–1011aa, KDM4B 917–1031aa and KDM4C 877–991aa); (His)6-HaloTag (pFN29) or (His)6 (pET28b); made in house; host or cells: Escherichia coli BL21 (DE3)
T7 sequence (O75164 895-1011 N931D/D939R/D945R): T1 sequence (O75164 895-1011) with N37D, D45R, D51R
Excerpt: as §1, with “Plasmids encoding Xenopus laevis core histones were a generous gift of K. Luger (University of Colorado-Boulder). Site-directed mutagenesis was performed with Q5 Site-Directed Mutagenesis Kit (New England Biolabs).” left out
as §3

[8] = biological target: T8, KDM4A-DTD N931R (Homo sapiens, UniProt O75164, N931R); assay: FP binding, KDM4A-DTD N931R; details: pH 7.4, Fig. 2j (± s.d., three replicates) and text, read-out: binding affinity, KDM4A-DTD N931R
T8 construct: DNA encoding DTDs (KDM4A 895–1011aa, KDM4B 917–1031aa and KDM4C 877–991aa); (His)6-HaloTag (pFN29) or (His)6 (pET28b); made in house; host or cells: Escherichia coli BL21 (DE3)
T8 sequence (O75164 895-1011 N931R limits assumed): T1 sequence (O75164 895-1011) with N37R
Excerpt: as §1, with “Plasmids encoding Xenopus laevis core histones were a generous gift of K. Luger (University of Colorado-Boulder). Site-directed mutagenesis was performed with Q5 Site-Directed Mutagenesis Kit (New England Biolabs).” left out
as §3

[9] = biological target: T9, KDM4A-DTD Y973A (Homo sapiens, UniProt O75164, Y973A); assay: FP binding, KDM4A-DTD Y973A; details: pH 7.4, aromatic cage mutant, Fig. 2e (± s.d., three replicates) and text
T9 construct: DNA encoding DTDs (KDM4A 895–1011aa, KDM4B 917–1031aa and KDM4C 877–991aa); (His)6-HaloTag (pFN29) or (His)6 (pET28b); made in house; host or cells: Escherichia coli BL21 (DE3)
T9 sequence (O75164 895-1011 Y973A limits assumed): T1 sequence (O75164 895-1011) with Y79A
Excerpt: as §1, with “Plasmids encoding Xenopus laevis core histones were a generous gift of K. Luger (University of Colorado-Boulder). Site-directed mutagenesis was performed with Q5 Site-Directed Mutagenesis Kit (New England Biolabs).” left out
as §3

[10] = biological target: T10, KDM4A-DTD N931D (Homo sapiens, UniProt O75164, N931D); assay: FP binding, KDM4A-DTD N931D; details: pH 7.4, Fig. 2j (± s.d., three replicates), Supplementary Fig. 2f and text
T10 construct: DNA encoding DTDs (KDM4A 895–1011aa, KDM4B 917–1031aa and KDM4C 877–991aa); (His)6-HaloTag (pFN29) or (His)6 (pET28b); made in house; host or cells: Escherichia coli BL21 (DE3)
T10 sequence (O75164 895-1011 N931D): T1 sequence (O75164 895-1011) with N37D
Excerpt: as §1, with “Plasmids encoding Xenopus laevis core histones were a generous gift of K. Luger (University of Colorado-Boulder). Site-directed mutagenesis was performed with Q5 Site-Directed Mutagenesis Kit (New England Biolabs).” left out
as §3

[11] = biological target: T11, KDM4A-DTD N940A (Homo sapiens, UniProt O75164, N940A); assay: FP binding, KDM4A-DTD N940A; details: pH 7.4, Fig. 2g, 4g (± s.d., three replicates) and text
T11 construct: DNA encoding DTDs (KDM4A 895–1011aa, KDM4B 917–1031aa and KDM4C 877–991aa); (His)6-HaloTag (pFN29) or (His)6 (pET28b); made in house; host or cells: Escherichia coli BL21 (DE3)
T11 sequence (O75164 895-1011 N940A): T1 sequence (O75164 895-1011) with N46A
Excerpt: as §1, with “Plasmids encoding Xenopus laevis core histones were a generous gift of K. Luger (University of Colorado-Boulder). Site-directed mutagenesis was performed with Q5 Site-Directed Mutagenesis Kit (New England Biolabs).” left out
as §3

| Compound | Kd ([1]; matrix Fig. 1d and Fig. 3c, pH 7.4, read-out: binding affinity (Kd), KDM4A DTD wild-type) [µM] | Kd [2] [µM] | Kd ([3]; matrix Fig. 1d, values given in mM, pH 7.4, read-out: binding affinity (Kd), KDM4B DTD) [mM] | Kd [4] [µM] | Kd ([1]; pH 7.4, read-out: Kd, KDM4A-DTD wild-type) [µM] | Kd [5] [µM] | Kd [6] [µM] | Kd of DRR mutant [7] | Kd ([3]; Fig. 1c, 3 nM fluorescein-labelled peptide, pH 7.4, ± s.d. from three experimental replicates, read-out: binding constant (FP), KDM4B-DTD) [mM] | Kd [8] [µM] | Kd [9] [µM] | Kd [10] [µM] | Kd [11] [µM] |
| --- | --- | --- | --- | --- | --- | --- | --- | --- | --- | --- | --- | --- | --- |
| C[C@H](N)C(=O)N[C@@H](CCCNC(=N)N)C(=O)N[C@H](C(=O)N[C@@H](CCCC[N+](C)(C)C)C(=O)N[C@@H](CCC(N)=O)C(=O)N[C@H](C(=O)N[C@@H](C)C(=O)N[C@@H](CCCNC(=N)N)C(=O)N[C@@H](CCCCN)C(=O)N[C@@H](CO)C(=O)N[C@H](C(=O)NCC(=O)NCC(=O)N[C@@H](CCCCNC(=O)c1ccc2c(c1)C(=O)OC21c2ccc(O)cc2Oc2cc(O)ccc21)C(=O)O)[C@@H](C)O)[C@@H](C)O)[C@@H](C)O [H3K4me3] | 2.7 | 304 ± 35.8 | > 3 | 199 ± 16.1 | – | – | – | – | – | – | – | – | – |
| CC(C)C[C@H](NC(=O)[C@H](CCC(N)=O)NC(=O)[C@H](CCCCN)NC(=O)[C@H](CCCNC(=N)N)NC(=O)c1ccc2c(c1)C(=O)OC21c2ccc(O)cc2Oc2cc(O)ccc21)C(=O)N[C@@H](C)C(=O)N[C@H](C(=O)N[C@@H](CCCC[N+](C)(C)C)C(=O)N[C@@H](C)C(=O)N[C@@H](C)C(=O)N[C@@H](CCCNC(=N)N)C(=O)N[C@@H](CCCCN)C(=O)N[C@@H](CO)C(=O)N[C@@H](C)C(=O)N1CCC[C@H]1C(=O)N[C@@H](C)C(=O)N[C@H](C(=O)O)[C@@H](C)O)[C@@H](C)O [H3K23me3] | – | – | – | – | 2.2 | 327 | 73.6 ± 3.9 | low micromolar Kd value | 0.0103 ± 0.0012 | 73.9 | 285 | 0.85 | 57.4 |
